As a reminder, the pKi is the negative decadic logarithm of the Ki, by convention in mol/L. For orientation: pKd means the Kd on a negative log10 scale, so that one unit is a factor of ten.

pKd, pKi: −log10 of the molar value.

Drawing on patent US20120165331A1, “Di/tri-aza-spiro-C9-C11alkanes” (priority 2010, published 2012), this text covers Ki and Kd for 19 compounds.

For assay [1], the target named is T1, human orexin 1 receptor (Homo sapiens, UniProt O43613).
T1 construct: expressed in transfected cells
T1 sequence (O43613 1-425): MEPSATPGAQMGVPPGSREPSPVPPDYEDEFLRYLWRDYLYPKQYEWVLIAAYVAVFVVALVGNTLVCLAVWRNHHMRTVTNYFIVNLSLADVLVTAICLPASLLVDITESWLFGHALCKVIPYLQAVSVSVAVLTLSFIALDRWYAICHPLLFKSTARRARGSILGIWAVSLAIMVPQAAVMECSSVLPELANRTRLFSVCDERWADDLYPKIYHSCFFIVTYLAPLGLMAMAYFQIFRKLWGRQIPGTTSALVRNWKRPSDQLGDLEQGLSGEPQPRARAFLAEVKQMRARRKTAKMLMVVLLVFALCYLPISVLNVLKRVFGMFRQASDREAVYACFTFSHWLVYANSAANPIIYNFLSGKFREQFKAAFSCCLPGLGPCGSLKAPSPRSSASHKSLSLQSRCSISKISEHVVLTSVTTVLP
The experiment in a line: Calcium accumulation in cells (FLIPR), antagonism of orexin A, human orexin 1 receptor. The class given is cell-based. To be noted: calcium accumulation, antagonism of orexin A, Cheng-Prusoff corrected; read-out: FLIPR hOx1R Ki.

The target of assay [2] is T1, human orexin 1 receptor. The experiment in a line: Radioligand binding assay ([3H]-SB649868 competition), human orexin 1 receptor. The following applies: radioligand [3H]-SB649868; read-out: Binding hOx1R Kd. A digest of the protocol:
(§1)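 Membranes from CHO or HEK cells expressing the human receptor were incubated 1 h at room temperature with about 1 nM [3H]-SB649868 and test compound in HEPES pH 7.5 buffer with BSA, MgCl2, CaCl2 and tween. Non-specific binding defined with 10 μM almorexant; filtration read-out, values reported as Kd.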

The target in assay [3] is T2, human orexin 2 receptor (Homo sapiens, UniProt O43614).
T2 construct: expressed in transfected cells
T2 sequence (O43614 1-444): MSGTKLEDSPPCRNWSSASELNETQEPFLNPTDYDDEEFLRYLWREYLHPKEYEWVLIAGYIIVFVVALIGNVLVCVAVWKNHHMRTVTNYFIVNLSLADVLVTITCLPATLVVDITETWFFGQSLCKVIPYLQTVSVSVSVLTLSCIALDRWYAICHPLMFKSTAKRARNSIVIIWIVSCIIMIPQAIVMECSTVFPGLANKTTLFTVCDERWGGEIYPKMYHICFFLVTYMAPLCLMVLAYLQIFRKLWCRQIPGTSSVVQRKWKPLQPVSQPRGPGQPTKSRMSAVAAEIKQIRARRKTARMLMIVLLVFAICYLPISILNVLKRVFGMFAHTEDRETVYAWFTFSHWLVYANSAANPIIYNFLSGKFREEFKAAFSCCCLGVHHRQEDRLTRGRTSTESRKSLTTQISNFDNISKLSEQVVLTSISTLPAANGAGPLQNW
Briefly: Calcium accumulation in cells (FLIPR), antagonism of orexin A, human orexin 2 receptor. The class given is cell-based. To be noted: calcium accumulation, antagonism of orexin A, Cheng-Prusoff corrected; read-out: FLIPR hOx2R Ki.

For assay [4], the target named is T2, human orexin 2 receptor. The experiment in a line: Radioligand binding assay ([3H]-SB649868 competition), human orexin 2 receptor. The following applies: radioligand [3H]-SB649868; read-out: Binding hOx2R Kd. The method in brief: as §1

For the compound `COCCOc1cccc(-c2nn(C)nc2CN2CCNC3(CCN(c4nc(C)cc(C)n4)CC3)C2=O)c1` [Example 1.78, 9-(4,6-dimethyl-pyrimidin-2-yl)-4-((5-(3-(2-methoxyethoxy)phenyl)-2-methyl-2H-1,2,3-triazol-4-yl)methyl)-1,4,9-triazaspiro[5.5] undecan-5-one], the pKi was 5.73 on human orexin 1 receptor [1] and 8.05 at human orexin 2 receptor [3]. For the same compound, the pKd was 6.15 on human orexin 1 receptor [2] and 7.55 on human orexin 2 receptor [4].
The matching figures for `COc1cccc(-c2cn(C)nc2CN2CCNC3(CCN(c4nc(C)cc(C)n4)CC3)C2=O)c1` [Example 1.33, 9-(4,6-Dimethyl-pyrimidin-2-yl)-4-((4-(3-methoxyphenyl)-1-methyl-1H-pyrazol-3-yl)methyl)-1,4,9-triazaspiro[5.5] undecan-5-one]: 5.82, 8.22, 5.79 and 7.38.
For `CN(C)c1cc(C(F)(F)F)nc(N2CCC3(CCN(Cc4c[nH]c5ccccc45)C3=O)C2)n1` (stereo not shown) [Example 5.47, 2-((1H-indol-3-yl)methyl)-7-(4-(dimethylamino)-6-(trifluoromethyl)pyrimidin-2-yl)-2,7-diazaspiro[4.4]nonan-1-one], in that order: 6.71, 7.01, 5.99 and 6.29.
For `Cc1ccc(C)c(CN2C(=O)COCC23CCN(c2cnc4ccccc4n2)CC3)c1` [Example 8.7, 1-(2,5-Dimethylbenzyl)-9-(quinoxalin-2-yl)-4-oxa-1,9-diazaspiro[5.5]undecan-2-one], in that order: 6.56, 7.62, 6.37 and 6.99.
On to `CC(=O)c1cccc(-c2cn(C)nc2CN2CCNC3(CCN(c4nc(C)cc(C)n4)CC3)C2=O)c1` [Example 1.48, 4-((4-(3-Acetylphenyl)-1-methyl-1H-pyrazol-3-yl)methyl)-9-(4,6-dimethyl-pyrimidin-2-yl)-1,4,9-triazaspiro[5.5] undecan-5-one], for which the values for the pKi on human orexin 1 receptor [1] and on human orexin 2 receptor [3] were 5.56 and 7.92, respectively. Further, the pKd on human orexin 1 receptor [2] is 5.64; on human orexin 2 receptor [4], 7.00.
For `COc1cc(C)nc(N2CCC3(CCCN(Cc4ccccc4-c4nc(C)no4)C3=O)C2)n1` (stereo not shown) [Example 7.14, 2-(4-methoxy-6-methylpyrimidin-2-yl)-7-(2-(3-methyl-1,2,4-oxadiazol-5-yl)benzyl)-2,7-diazaspiro[4.5]decan-6-one], in that order: 6.76, 7.04, 6.77 and 6.68.
Consider `COc1cc(C)nc(N2CCC3(CC2)NCCN(Cc2c[nH]c4ccccc24)C3=O)n1` [Example 1.8, 4-((1H-Indol-3-yl)methyl)-9-(4-methoxy-6-methylpyrimidin-2-yl)-1,4,9-triazaspiro[5.5] undecan-5-one], for which the pKi was 6.04 on human orexin 1 receptor [1] and 8.10 on human orexin 2 receptor [3]. Moreover, the pKd is 6.17 at human orexin 1 receptor [2] and 7.72 on human orexin 2 receptor [4].
With `Cc1cc(C)nc(N2CCC3(CC2)OCCN(Cc2c[nH]c4ccccc24)C3=O)n1` [Example 2.1, 4-((1H-indol-3-yl)methyl)-9-(4,6-dimethylpyrimidin-2-yl)-1-oxa-4,9-diazaspiro[5.5]undecan-5-one], the results for the pKi on human orexin 1 receptor [1] and at human orexin 2 receptor [3] were 5.77 and 7.54, respectively. Besides, the pKd at human orexin 1 receptor [2] is 5.88; at human orexin 2 receptor [4], 7.51.
Regarding `CCc1cccc(-c2cn(C)nc2CN2CCNC3(CCN(c4nc(C)cc(C)n4)CC3)C2=O)c1` [Example 1.67, 9-(4,6-dimethyl-pyrimidin-2-yl)-4-((4-(3-ethyl-phenyl)-1-methyl-1H-pyrazol-3-yl)methyl)-1,4,9-triazaspiro[5.5] undecan-5-one], the pKi at human orexin 1 receptor [1] was 5.94; on human orexin 2 receptor [3], 8.30. The pKd at human orexin 1 receptor [2] was 5.75; at human orexin 2 receptor [4], 7.30.
The matching figures for `O=C1COCC2(CCN(c3cnc4ccccc4n3)CC2)N1Cc1cccc(-c2ccccn2)c1` [Example 8.11, 1-(3-(Pyridin-2-yl)benzyl)-9-(quinoxalin-2-yl)-4-oxa-1,9-diazaspiro[5.5]undecan-2-one]: 7.28, 6.11, 7.28 and 5.34.
As to `COc1ccnc(N2CCC3(CCCN(Cc4c[nH]c5ccccc45)C3=O)C2)n1` (stereo not shown) [Example 7.4, 7-((1H-Indol-3-yl)methyl)-2-(4-methoxypyrimidin-2-yl)-2,7-diazaspiro[4.5]decan-6-one], the pKi on human orexin 1 receptor [1] was 6.50; at human orexin 2 receptor [3], 7.23. For the same compound, the pKd is 6.70 on human orexin 1 receptor [2] and 6.82 at human orexin 2 receptor [4].
For `COc1cccc(-c2sc(C)nc2CN2CCNC3(CCN(c4nc(C)cc(OC)n4)CC3)C2=O)c1` [Example 1.26, 9-(4-Methoxy-6-methylpyrimidin-2-yl)-4-((5-(3-methoxyphenyl)-2-methylthiazol-4-yl)methyl)-1,4,9-triazaspiro[5.5] undecan-5-one], the pKi on human orexin 1 receptor [1] was 6.41; on human orexin 2 receptor [3], 8.10. Further, the pKd at human orexin 1 receptor [2] is 6.45; at human orexin 2 receptor [4], 7.31.
The matching figures for `Cc1cc(C)nc(N2CCC3(CC2)NCCN(Cc2nn(C)cc2-c2cccc(OC(C)C)c2)C3=O)n1` [Example 1.47, 9-(4,6-Dimethyl-pyrimidin-2-yl)-4-((4-(3-iso-propoxyphenyl)-1-methyl-1H-pyrazol-3-yl)methyl)-1,4,9-triazaspiro[5.5] undecan-5-one]: 6.87, 9.00, 6.73 and 8.15.
As for `Cc1cc(C)nc(N2CCC3(CC2)OCCN(Cc2nn(C)cc2-c2ccccc2)C3=O)n1` [Example 2.11, 9-(4,6-Dimethylpyrimidin-2-yl)-4-((1-methyl-4-phenyl-1H-pyrazol-3-yl)methyl)-1-oxa-4,9-diazaspiro[5.5]undecan-5-one], the pKi on human orexin 1 receptor [1] was 5.63; on human orexin 2 receptor [3], 7.12. In addition, the negative logarithm of the Kd (pKd) was 5.50 on human orexin 1 receptor [2] and 6.64 on human orexin 2 receptor [4].
Turning to `Cc1cc(C)nc(N2CCC3(CC2)NCCN(Cc2nn(C)cc2-c2cccc(OCC(C)C)c2)C3=O)n1` [Example 1.53, 9-(4,6-Dimethyl-pyrimidin-2-yl)-4-((4-(3-isobutoxyphenyl)-1-methyl-1H-pyrazol-3-yl)methyl)-1,4,9-triazaspiro[5.5] undecan-5-one], the pKi on human orexin 1 receptor [1] was 6.48; at human orexin 2 receptor [3], 8.15. Further, the pKd was 6.50 at human orexin 1 receptor [2] and 7.35 on human orexin 2 receptor [4].
Take `COc1cccc(-c2ocnc2CN2CCNC3(CCN(c4nc(C)cc(OC)n4)CC3)C2=O)c1` [Example 1.13, 9-(4-Methoxy-6-methylpyrimidin-2-yl)-4-((5-(3-methoxyphenyl)oxazol-4-yl)methyl)-1,4,9-triazaspiro[5.5] undecan-5-one]: the results for the pKi on human orexin 1 receptor [1] and at human orexin 2 receptor [3] were 7.43 and 8.52, respectively. Besides, the pKd on human orexin 1 receptor [2] is 7.09; at human orexin 2 receptor [4], 6.70.
With `Cc1cc(C#N)nc(N2CCC3(CC2)NCCN(Cc2c[nH]c4ccccc24)C3=O)n1` [Example 1.40, 2-(4-((1H-Indol-3-yl)methyl)-5-oxo-1,4,9-triazaspiro[5.5]undecan-9-yl)-6-methylpyrimidine-4-carbonitrile], the values for the pKi on human orexin 1 receptor [1] and at human orexin 2 receptor [3] were 5.55 and 7.70, respectively. Moreover, the pKd at human orexin 1 receptor [2] was 5.28; on human orexin 2 receptor [4] it was 7.10.
Consider `COc1cccc(-c2n[nH]nc2CN2CCNC3(CCN(c4nc(C)cc(C)n4)CC3)C2=O)c1` [Example 1.39, 9-(4,6-Dimethyl-pyrimidin-2-yl)-4-((5-(3-methoxy-phenyl)-2H-1,2,3-triazol-4-yl)methyl)-1,4,9-triazaspiro[5.5] undecan-5-one], for which the pKi was 6.52 at human orexin 1 receptor [1] and 8.70 at human orexin 2 receptor [3]. In addition, the pKd is 6.64 at human orexin 1 receptor [2] and 7.89 at human orexin 2 receptor [4].
For `Cc1cc(C)nc(N2CCC3(CC2)NCCN(Cc2nn(C)cc2-c2cccc(C(F)F)c2)C3=O)n1` [Example 1.71, 4-((4-(3-(difluoromethyl)phenyl)-1-methyl-1H-pyrazol-3-yl)methyl)-9-(4,6-dimethylpyrimidin-2-yl)-1,4,9-triazaspiro[5.5] undecan-5-one], in that order: 5.69, 7.52, 5.77 and 6.64.
